Reference: patent US11708357B2, “Crystal form of pyrrolidinyl urea derivative and application thereof” (ZHANGZHOU PIEN TZE HUANG PHARMACEUTICAL CO., LTD., priority 2020, dated 2023)

How the values were obtained:
[1] = In vivo pharmacokinetic study in beagle dogs after single administration; conditions: male, dog, plasma, 2 mg/kg, 2 mpk intravenous injection
Method: Male beagle dogs were used as test animals, the concentration of the compound in blood after single administration was determined to evaluate the pharmacokinetic behavior.
Beagle dogs (Male, 6-12 kg, more than 6 months, Beijing Marshall Biotechnology Co., Ltd.).
The objective of the test was to study the pharmacokinetic characteristics of the test compound in non-rodent after intravenous injection and oral administration. In the experiment, the test compound was prepared into a clear solution or homogeneous suspension and administered to the beagle dogs by single intravenous injection or oral administration. In the intravenous injection group, the menstruum was a certain proportion of dimethyl sulfoxide in HP-β-cyclodextrin solution or a certain proportion of ethanol, polyethylene glycol 400 and physiological saline solution, the mixture was vortexed and subjected to ultrasonic treatment to prepare 2 mg/mL clear solution, then filtered with microporous membrane for later use; in the oral administration group, the menstruum was a certain proportion of dimethyl sulfoxide in HP-β-cyclodextrin solution or a certain proportion of sodium carboxymethyl cellulose solution, the test compound was mixed with the menstruum, vortexed and subjected to ultrasonic treatment to prepare 2 mg/mL homogeneous suspension for later use. After 2 mg/kg intravenous administration or 10 mg/kg oral administration to the Beagle dogs, a certain amount of whole blood samples were collected, centrifuged at 3000 g for 10 minutes, and the supernatant was separated to obtain plasma samples; then an acetonitrile solution containing internal standard with a volume 10 times that of the plasma sample was added to precipitate proteins, and then centrifuged; the supernatant was separated for analysis; LC-MS/MS analysis method was used to quantitatively analyze the blood drug concentration, and Phoenix WinNonlin software (Pharsight, USA) was used to calculate the pharmacokinetic parameters, such as peak concentration, time to peak concentration, clearance rate, half-life, area under the concentration-time curve, bioavailability, etc.
(§1) Among them, C0 is the initial concentration, T1/2 is the elimination half-life, Vdss is the steady-state apparent volume of distribution, Cl is the total clearance rate, AUC0-inf is the area under the plasma drug concentration-time curve from time 0 to infinity, Cmax is the peak concentration, Tmax is the time to peak concentration.

[2] = Plasma protein binding rate (PPB) test, human plasma; type: in vitro ADME; conditions: 2 μM, dialysis 37° C. 4 hours
Method: (§2) The protein binding rates of the test compound in the plasma of humans and SD rats were determined.
(§3) 796 μL of blank plasma from humans and SD rats (plasma purchased from BioreclamationIVT) were taken, 4 μL of working solution of the test compound (400 μM) or warfarin working solution (400 μM) was added and the final concentration of the test compound or warfarin was 2 μM. The sample was mixed thoroughly. […] All samples were analyzed by LC/MS/MS after protein precipitation, and the plasma protein unbound rate, binding rate and recovery rate was calculated according to the following formula: % unbound rate=100*free compound concentration at the membrane buffer side/total compound concentration at the membrane plasma side, % protein binding rate=100−% unbound rate, % recovery rate=100*(free compound concentration at the membrane buffer side+total compound concentration at the membrane plasma side)/total compound concentration before dialysis.

[3] = Plasma protein binding rate (PPB) test, SD rat plasma; type: in vitro ADME; conditions: 2 μM, dialysis 37° C. 4 hours
Method: as §2, §3

[4] = In vivo pharmacokinetic study in rats after single administration; conditions: male, Sprague Dawley, rat, plasma, 2 mg/kg, 2 mpk intravenous injection
Method: Male SD rats were used as test animals, and the concentration of the compound in blood was determined after single administration to evaluate the pharmacokinetic behavior.
Sprague Dawley rats (male, 200-300 g, 7-9 weeks, Shanghai Charles River Laboratory Animal Co., Ltd.)
The pharmacokinetic characteristics of the test compound in rodents after intravenous injection and oral administration were tested by standard protocols, in the experiment, the test compound was prepared into a clear solution or homogeneous suspension, and administered to the rats by single intravenous injection and oral administration. In the intravenous injection group, the menstruum was a certain proportion of ethanol and physiological saline solution or a certain proportion of dimethyl sulfoxide in HP-β cyclodextrin solution (the pH was adjusted to 3-4), the mixture was vortexed and stirred to prepare 1 mg/mL clear solution, then filtered with microporous membrane for later use; in the oral administration group, the menstruum was a certain proportion of sodium carboxymethyl cellulose solution or a certain proportion of dimethyl sulfoxide in HP-β cyclodextrin solution (the pH was adjusted to about 4), after the test compound was mixed with the solvent, the mixture was vortexed and stirred to prepare 30 mg/mL homogeneous suspension for later use. After 2 mg/kg intravenous administration or 300 mg/kg oral administration to rats, a certain amount of whole blood samples were collected, centrifuged at 3000 g for 15 minutes, the supernatant was separated to obtain the plasma samples; then an acetonitrile solution containing internal standard with a volume 3 times that of the plasma sample was added to precipitate proteins, and then centrifuged; the supernatant was separated, and water with a volume twice that of the supernatant was added to the supernatant, which was then centrifuged again; the supernatant was collected for analysis; LC-MS/MS analysis method was used to quantitatively analyze the blood drug concentration, and Phoenix WinNonlin software (Pharsight, USA) was used to calculate the pharmacokinetic parameters, such as peak concentration, time to peak concentration, clearance rate, half-life, area under the concentration-time curve, bioavailability, etc.
as §1

AUC(0-inf) [1]: 4.66 µM·h
C0 [1]: 8.46 µM
clearance [1]: 12.4 mL/min/kg
half-life [1]: 26.4 min
Vd ([1]; read-out: Vdss): 0.49 L/kg
Plasma protein unbound rate, Human plasma [2]: 13.2%
Plasma protein unbound rate, SD rat plasma [3]: 7.1%
AUC(0-inf) [4]: 2.61 µM·h
C0 [4]: 5.38 µM
clearance [4]: 22.4 mL/min/kg
half-life [4]: 33 min
Vd ([4]; read-out: Vdss): 0.81 L/kg
Structure (SMILES): COCCN1C[C@@H](n2ccc(F)c2)[C@H](NC(=O)Nc2c(C)c(-c3cnc(C4(F)COC4)nc3)nn2-c2ccccc2)C1 [Compound of formula (I)]
